Read-outs that look alike come from different tables or passages of the source.
Legend:
[1] = system: B16 melanoma cells; type: cell-based
Excerpt: Furthermore, the autophagy induction of humanin may be related to its apparent effects of enhancing longevity observed in other systems.

[2] = system: male germ cells
[3] = system: testosterone; conditions: with or without EDS pre-treatment
[4] = system: Leydig cells; assay: Histology of rat testes: Leydig cells; conditions: EDS for three days
[5] = system: Leydig cells; assay: Testosterone of cultured Leydig cells treated with ketoconazole; type: cell-based, rat; conditions: KTZ 10 mcg/ml, 4 hours
Method: Leydig cells were isolated based on a previously described procedure (Gao, et al., 1996; Klinefelter, et al., 1987; Salva, et al., 2001). Briefly, the testes were decapsulated, and then dissociated with collagenase, dispase, DNase and shaking for 15 min at 34° C. The seminiferous tubules were removed by filtration through 40 μm nylon mesh (BD Falcon, Franklin Lakes, N.J.). Leydig cells were then harvested after centrifugation and purified using a Percoll gradient (GE Healthcare, Uppsala, Sweden) and centrifugation (60 minutes at 20,000 g at 4° C.). Enriched Leydig cells were harvested at densities between 1.065 (red) and 1.075 (blue) g/cm^3 from the percoll gradient. These Leydig cells were washed by diluting the percoll and excluding residual germ cells and other cells using a BSA density gradient with centrifugation. The purity of the Leydig cells was >90%, as determined by histochemical staining for 3β-hydroxysteroid dehydrogenase. The cell viability, as assessed by trypan blue exclusion, was greater than 90%. […]
Testosterone concentrations in plasma, testes, and culture medium were measured by a previously described radioimmunoassay (Lue, et al., 2010) with a minimal detection limit of 0.1 ng/ml. […]

[6] = system: male germ cells; type: in vivo, mouse; conditions: middle stages
Method: Onco-infertility is a major concern of cancer survivors. In this study, it was investigated whether HNG will prevent chemotherapy (Temozolomide, TMZ, an alkylating agent used clinically to treat brain tumors) induced male germ cell apoptosis in SCID mice bearing subcutaneous implants of human medulloblastoma. DAOY human pediatric medulloblastoma cells (1.0×10^8 cells/animal) were injected subcutaneously into the right flank of 7-week old male SCID mice. After 3 weeks to allow tumor growth, each group of mice (n=4 to 5/group) received one of the following treatments: 1) vehicle (control); 2) HNG intra-peritoneal (IP) injection (HNG, 5 mg/Kg BW/day, 3 days pretreatment +5 days treatment); 3) TMZ IP injection (TMZ, 50 mg/Kg BW/day×5 days); 4) TMZ and HNG IP injections (TMZ+HNG). Mice were sacrificed 24 hours after the last injection, subcutaneous tumors were dissected and weighed (FIG. 26) and male germ cell apoptosis was assessed by TUNEL staining and quantified (Apoptosis Index, AI, number of apoptotic germ cell/Sertoli cell, FIG. 27). […] HNG ameliorated TMZ-induced germ cell apoptosis without affecting the chemotherapeutic effect on transplanted medulloblastoma tumor in an immunocompromised mouse model.

[7] = Table 1; cited from earlier work

Cn1cnc(=N)c2[nH]cnc21 [3-MA]
additive effect of humanin in doxorubicin treated B16 cells, with autophagy inhibitor [1]: diminished

CS(=O)(=O)OCCOS(C)(=O)=O [EDS, ethane dimethanesulfonate]
germ cell apoptosis compared to control ([2]; early (I-VI) and late (IX-XIV) stages, EDS pre-treated): did not significantly increase
germ cell apoptosis compared to control ([2]; middle (VII-VIII) stages, EDS 80 mg/kg pre-treatment): significant acute cytotoxic effects
intratesticular testosterone levels [3]: decreased to very low levels
serum testosterone levels [3]: decreased to very low levels
Leydig cells in the interstitial spaces compared to control [4]: depletion of Leydig cells

CC(=O)N1CCN(c2ccc(OCC3COC(Cn4ccnc4)(c4ccc(Cl)cc4Cl)O3)cc2)CC1 (centres unmarked) [KTZ, ketoconazole]
testosterone levels compared to control [5]: lowered the testosterone levels significantly

Cn1nnc2c(C(N)=O)ncn2c1=O [TMZ, Temozolomide]
Apoptosis Index (AI, apoptotic germ cell/Sertoli cell) [6]: 0.058±0.006

CCN(CC)CCCC(C)Nc1ccnc2cc(Cl)ccc12 (centres unmarked) [chloroquine]
additive effect of humanin in doxorubicin treated B16 cells, with autophagy inhibitor [1]: diminished

MAPRGASCLLLLTSEIDLPVKRRA [HN-F6A]
Cytoprotective Action [7]: Similar/more effective

MAPRGFSALLLLTSEIDLPVKRRA [HN-C8A, HN mutant, Cys8 to Ala]
Cytoprotective Action [7]: Not effective, prevents

Source: US9937227B2, “Humanin, analogs and cancer treatment methods and uses thereof” (LOS ANGELES BIOMEDICAL RESEARCH INSTITUTE AT HARBOR-UCLA …, priority 2014, dated 2018)
